Test results reported in patent US9974760B2, “Compositions and methods for treating cancer” (Chemo-Enhanced LLC, priority 2011, dated 2018).

Tests used:
MIA-PaCa2 cells = assay: Cell death in MIA-PaCa2 pancreatic cancer cells; assay type: cell-based
Protocol: (§1) FIGS. 3A-3H show synergistic anti-tumor effects of C6-ceramide and gemcitabine in vivo and in vitro. SCID/Beige/Taconic nude male mice (22-25 g; 6-8 weeks old) were ear tagged and randomized into 4 different groups (Control, Ceramide, gemcitabine, Ceramide+gemcitabine) combining 5 mice each prior to inoculation subcutaneous (s.c.) with 2×10^6 L3.6 cells in a 0.1 ml volume into the internal surface of the right thigh. Treatment was started 4 days after L3.6 cell injection with thrice weekly (3×/wk) intraperitoneal (i.p.) injections of gemcitabine (two doses: 5.0 and 10.0 mg/ml) with or without C6-ceramide (10 mg/ml) for 2 weeks. Mouse survival (FIGS. 3A, 3B, and 3E) and tumor volume (in cm^3; FIGS. 3C and 3D) were recorded (FIG. 3E). […] Mitomycin C was always present in the media to prevent cell proliferation from occurring. The data represent the mean±SD of at least triplicate experiments. *P<0.05 versus group without C6-ceramide presents. The experiments were repeated at least three times and similar results were observed.
(§2) Cell viability was measured by the 3-[4m5-dimethylthylthiazol-2-y]-2.5 diphenyltetrazolium bromide (MTT) method, as described in Cao et al. (2009) Sci. Signal, 2:RA17. Briefly, the cells were collected and seeded in 96-well plate at a density of 2×10^5 cells/cm^2. Different seeding densities were optimized at the beginning of the experiments. […] The medium was subsequently aspirated from each well and 150 ul of DMSO (Sigma, St. Louis, Mo.) was added to dissolve formazan crystals and the absorbance of each well was obtained using a Dynatech MR5000 plate reader at a test wavelength of 490 nm with a reference wavelength of 630 nm.
(§3) The possible combination effect of C6-ceramide on gemcitabine-induced cytotoxicity (in vitro) and regression (in vivo) of the L3.6 pancreatic cancer cell was also tested according to the methods described in Examples 2 and 3. […] A synergistic anti-tumor effect of gemcitabine and C6-ceramide in multiple pancreatic cancer cells in vitro was also determined.

L3.6 pancreatic cells = assay type: in vivo; conditions: taxol 3 mg/ml, C6-ceramide 10 mg/ml, i.p. 3×/wk, vs control
Protocol: Treatment was started 4 days after L3.6 cell injection with thrice weekly (3×/wk) intraperitoneal (i.p.) injections of paclitaxel 3.0 mg/ml with or without C6-ceramide (10 mg/ml) for 2 weeks. Mouse survival (FIGS. 2A and 2C), tumor volume (in cm^3; FIG. 2B), mouse body weight (in grams) were recorded (FIG. 2E). The average rate of tumor development was calculated by total tumor volume dividing by total number of days monitored (FIG. 2C).
SCID/Beige/Taconic nude male mice (22-25 g; 6-8 weeks old) were ear tagged and randomized into 4 different groups (Control, Ceramide, gemcitabine, Ceramide+gemcitabine) combining 5 mice each prior to inoculation subcutaneous (s.c.) with 2×10^6 L3.6 cells in a 0.1 ml volume into the internal surface of the right thigh. Treatment was started 4 days after L3.6 cell injection with thrice weekly (3×/wk) intraperitoneal (i.p.) injections of gemcitabine (two doses: 5.0 and 10.0 mg/ml) with or without C6-ceramide (10 mg/ml) for 2 weeks. Mouse survival (FIGS. 3A, 3B, and 3E) and tumor volume (in cm^3; FIGS. 3C and 3D) were recorded (FIG. 3E). Pancreatic cancer cell lines, including L3.6 cells (FIG. 3F), Panc-1 cells (FIG. 3G) and MIA-PaCa2 cells (MIA, FIG. 3H) were cultured in basic DMEM medium and were treated with gemcitabine (Gem, 1 μg/ml). Mitomycin C was always present in the media to prevent cell proliferation from occurring.
SCID/Beige/Taconic male mice were inoculated with 2×10^6 L3.6 pancreatic cells and treated […] 4 days post tumor implant with thrice weekly (3×/wk) intraperitoneal (I.P.) injections of paclitaxel (taxol) 3.0 mg/ml or gemcitabine (Gem) 10 mg/ml after treatment and were autopsied when near death (as per IRB committee). Mouse survival, tumor volume (in cm^3), and body weight (in grams) were recorded. Average rate of tumor development was calculated by dividing total tumor volume by total number of days monitored.
The possible combination effect of C6-ceramide on gemcitabine-induced cytotoxicity (in vitro) and regression (in vivo) of the L3.6 pancreatic cancer cell was also tested according to the methods described in Examples 2 and 3.

[1] = test system: L3.6 pancreatic cancer cells; assay: Cell viability / cell death (MTT) in L3.6 pancreatic cancer cells; assay type: cell-based, human; conditions: gemcitabine 1.5 μg/ml
Panc-1 cells = assay: Cell death in Panc-1 pancreatic cancer cells; assay type: cell-based
Protocol: as §1, §2, §3

Gab1 = Gab1 activation in wildtype and Gab1 knockout MEFs; assay type: cell-based; conditions: wildtype vs Gab1 knockout MEFs
Text: One of the most studied scaffold proteins for AKT activation is Gab1. Physical association between p85 and Gab1 is crucial in mediating the PI3K/AKT signaling pathway induced by a variety of stimuli. […] It is believed that that Gab1 is a key adaptor for taxol and gemcitabine induced PI3K/AKT/mTOR activation and chemoresistance response. To confirm this rationale, wildtype and Gab1 knockout MEFs and Gab1 siRNA can be used to test taxol and gemcitabine induced PI3K/AKT/mTOR and cell death. Interaction between Gab1 and p85 after Taxol and Gemcitabine treatment can also be tested in L3.6 cells.

| Structure (SMILES) | sensitization to cetuximab (MIA-PaCa2 cells; MIA PaCa-2, activating KRAS mutation) | cancer cell death (MIA-PaCa2 cells; MIA cells, gemcitabine 1.5 μg/ml) | mouse survival (L3.6 pancreatic cells) | tumor volume (L3.6 pancreatic cells) | cancer cell death [1] | sensitization to cetuximab (Panc-1 cells; PANC-1, activating KRAS mutation) | cancer cell death (Panc-1 cells; Panc-1, gemcitabine 1.5 μg/ml) | Gab1 activation (Gab1) |
| --- | --- | --- | --- | --- | --- | --- | --- | --- |
| CCCCCCCCCCCCC/C=C/[C@@H](O)[C@H](CO)NC(=O)CCCCC [C6-ceramide, N-hexanoyl-D-sphingosine] | markedly sensitized | moderate effect | minimal effects | minimal effects | moderate effect | markedly sensitized | moderate effect |  |
| CC(=O)O[C@H]1C(=O)[C@@]2(C)[C@H]([C@H](OC(=O)c3ccccc3)[C@]3(O)C[C@H](OC(=O)[C@H](O)[C@@H](NC(=O)c4ccccc4)c4ccccc4)C(C)=C1C3(C)C)[C@]1(OC(C)=O)CO[C@@H]1C[C@@H]2O [paclitaxel] |  |  | minimal effects | minimal effects |  |  |  | induces Gab1 activation in wildtype but not Gab1 knockout MEFs |
